Measurements: patent US8129398B2 (priority 2008, dated 2012)

Each compound was assayed against T1, HIV-integrase (Human immunodeficiency virus type 1 group M subtype B, UniProt P12497) (assay: HIV-Integrase Inhibition Activity (SPA bead integration assay with P33 labeled target DNA)). Details: recombinant integrase, class symbols; read-out: in vitro activity.
T1 construct: Recombinant integrase (0.26 ng) was incubated with the beads
Type: biochemical
In short: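 Strand integration read as bead-proximity CPM after P33 target DNA (0.1 fmol) and inhibitor were added to washed integrase–substrate DNA complexes on SPA beads. Enzyme bound 90 min at 37° C; EDTA (10 mM final) terminated reaction; IC50 graded A/B/C.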
In the case of C=C[C@@H]1C[C@]1(NS(C)(=O)=O)C(=O)NC12CCC(CC1)Cn1c2nc(C(=O)NCc2ccc(F)cc2)c(O)c1=O [Example 278, 7,10-Ethanopyrimido[1,2-a]azepine-2-carboxamide, 10-[[[(1R,2S)-2-ethenyl-1-[(methylsulfonyl)amino]cyclopropyl]carbonyl]amino]-N-[(4-fluorophenyl)methyl]-4,6,7,8,9,10-hexahydro-3-hydroxy-4-oxo-], the IC50 is reported as less than 10 nM.
Work on CC(C)CN(C)C(=O)C(=O)NC12CCC(CC1)Cn1c2nc(C(=O)NCc2ccc(F)cc2)c(O)c1=O [Example 99, N′-(2-((4-Fluorobenzyl)carbamoyl)-3-hydroxy-4-oxo-6,7,8,9-tetrahydro-7,10-ethanopyrimido[1,2-a]azepin-10(4H)-yl)-N-methyl-N-(2-methylpropyl)ethanediamide] yielded an IC50 of less than 10 nM.
Work on CN(C)C(=O)C(=O)NC12CCC(CC1)Cn1c2nc(C(=O)NCCCN2CCCC2=O)c(O)c1=O [Example 337] yielded an IC50 greater than 100 nM.
CCCS(=O)(=O)N1CCCC1C(=O)NC12CCC(CC1)Cn1c2nc(C(=O)NCc2ccc(F)cc2)c(O)c1=O (stereo not shown) [Example 404] was tested, and the IC50 was less than 10 nM.
Cc1cc(CNC(=O)c2nc3n(c(=O)c2O)CC2CCC3(NC(=O)[C@@H]3CCN3S(C)(=O)=O)CC2)ccc1F [Example 276, 7,10-Ethanopyrimido[1,2-a]azepine-2-carboxamide, N-[(4-fluoro-3-methylphenyl)methyl]-4,6,7,8,9,10-hexahydro-3-hydroxy-10-[[[(2S)-1-(methylsulfonyl)-2-azetidinyl]carbonyl]amino]-4-oxo-] was tested, and the IC50 was less than 10 nM.
In the case of CN(C)C(=O)C(=O)NC12CCC(CC1)Cn1c2nc(C(=O)NCc2ccccc2C(F)(F)F)c(O)c1=O [Example 377], the IC50 is reported as 10 to 100 nM.
CS(=O)(=O)N1CCCC[C@H]1C(=O)NC12CCC(CC1)Cn1c2nc(C(=O)NCc2ccc(F)cc2)c(O)c1=O [Example 266, 7,10-Ethanopyrimido[1,2-a]azepine-2-carboxamide, N-[(4-fluorophenyl)methyl]-4,6,7,8,9,10-hexahydro-3-hydroxy-10-[[[(2S)-1-(methylsulfonyl)-2-piperidinyl]carbonyl]amino]-4-oxo-] gave an IC50 of less than 10 nM.
Work on CN(C(=O)C(=O)N1CC[C@@H](F)C1)C12CCC(CC1)Cn1c2nc(C(=O)NCc2ccc(F)cc2)c(O)c1=O [Example 163, N-(4-Fluorobenzyl)-10-((((3R)-3-fluoro-1-pyrrolidinyl)(oxo)acetyl)(methyl)amino)-3-hydroxy-4-oxo-4,6,7,8,9,10-hexahydro-7,10-ethanopyrimido[1,2-a]azepine-2-carboxamide] yielded an IC50 of less than 10 nM.
Work on CC(C)C(=O)N1CCCC1C(=O)NC12CCC(CC1)Cn1c2nc(C(=O)NCc2ccc(F)cc2)c(O)c1=O (stereo not shown) [Example 399] yielded an IC50 of less than 10 nM.
With CN(C)C(=O)C(=O)NC12CCC(CC1)Cn1c2nc(C(=O)NCC(c2ccccc2)c2ccccc2)c(O)c1=O [Example 340] the IC50 was greater than 100 nM.
With CC(=O)NC12CCC(Cn3c1nc(C(=O)NCc1ccc(F)cc1)c(O)c3=O)C2 (stereo not shown) [Example 191, 7,10-Methanopyrimido[1,2-a]azepine-2-carboxamide, 10-(acetylamino)-N-[(4-fluorophenyl)methyl]-4,6,7,8,9,10-hexahydro-3-hydroxy-4-oxo-] the IC50 was less than 10 nM.
In the case of O=C(NC12CCC(CC1)Cn1c2nc(C(=O)NCc2ccc(F)cc2)c(O)c1=O)c1cnc2ccccc2c1 [Example 315, 7,10-Ethanopyrimido[1,2-a]azepine-2-carboxamide, N-[(4-fluorophenyl)methyl]-4,6,7,8,9,10-hexahydro-3-hydroxy-4-oxo-10-[(3-quinolinylcarbonyl)amino]-], the IC50 is reported as less than 10 nM.
In the case of CN(C)C(=O)C(=O)NC12CCCC(Cn3c1nc(C(=O)NCc1ccc(F)cc1)c(O)c3=O)C2 (stereo not shown) [Example 186, Ethanediamide, N′-[2-[[[(4-fluorophenyl)methyl]amino]carbonyl]-7,8,9,10-tetrahydro-3-hydroxy-4-oxo-7,11-methano-4H-pyrimido[1,2-a]azocin-11(6H)-yl]-N,N-dimethyl-], the IC50 is reported as less than 10 nM.
